Assay results: patent US20060167081A1, “Ep4 receptor agonists” (priority 2002, published 2006)

Columns and labels:
intracellular cAMP = experiment: Intracellular cAMP in osteoblastic cell lines; type: cell-based, rat
Experimental: (§1) Cell Cultures—RP-1 periosteal cells are spontaneously immortalized from primary cultures of periosteal cells from tibae of 4-week old Sprague-Dawley rats and are cultured in DMEM (BRL, Gaithersburg, Md.) with 10% fetal bovine serum (JRP Biosciences, Lenexa, KS). […] RCT-1 and RCT-3 are clonal cell lines immortalized by SV40 large T antigen from cells released from fetal rat calvair by a cmbination collagenase/hyaluronidase digestion. RCT-1 cells, derived from cells released during the first 10 minutes of digestion (fraction I), are cultured in RPMI 1640 medium (BRL) with 10% fetal bovine serum and 0.4 mg/ml G418 (BRL). These cells differentiate and express osteoblastic features upon retinoic acid treatment. RCT-3 cells, immortalized from osteoblast-enriched fraction m cells, are cultured in F-12 medium (BRL) with 5% Fetal bovine serum and 0.4 mg/ml G418. TRAB-11 cells are also immortalized by SV40 large T antigen from adult rat tibia and are cultured in RPMI 1640 medium with 10% FBS and 0.4 mg/ml G418. ROS 17/12.8 rat osteosarcoma cells are cultured in F-12 containing 5% PBS. Osteoblast-enriched (fraction III) primary fetal rat calvaria cells are obtained by collagenase/hyaluronidase digestion of calvariae of 19 day-old rat fetuses. See Rodan et al., Growth stimulation of rat calvaria osteoblastic cells by acidic FGF, Endocrinology, 121, 1919-1923 (1987), which is incorporated by reference herein in its entirety. Cells are released during 30-50 minutes digestion (fraction III) and are cultured in F-12 medium containing 5% FBS. P815 (mouse mastocytoma) cells, cultured in Eagles MEM with 10% FBS, and NRK (normal rat kidney fibroblasts) cells, cultured in DMEM with 10% […], are used as positive and negative controls for the expression of EP4, respectively. See Abramovitz et al., Human prostanoid receptors: cloning and characterization. In: Samulesson B. et al. ed) Advances in prostaglandin, Thrombosznes and leukotriene research, vol. […]

EP2 mRNA [1] = experiment: EP2 mRNA in RP-1 periosteal cells (Northern blot); type: cell-based, rat; settings: RP-1 cells
Experimental: Cell Cultures—RP-1 periosteal cells are spontaneously immortalized from primary cultures of periosteal cells from tibae of 4-week old Sprague-Dawley rats and are cultured in DMEM (BRL, Gaithersburg, Md.) with 10% fetal bovine serum (JRP Biosciences, Lenexa, KS). […] RCT-1 and RCT-3 are clonal cell lines immortalized by SV40 large T antigen from cells released from fetal rat calvair by a cmbination collagenase/hyaluronidase digestion. RCT-1 cells, derived from cells released during the first 10 minutes of digestion (fraction I), are cultured in RPMI 1640 medium (BRL) with 10% fetal bovine serum and 0.4 mg/ml G418 (BRL). These cells differentiate and express osteoblastic features upon retinoic acid treatment. RCT-3 cells, immortalized from osteoblast-enriched fraction m cells, are cultured in F-12 medium (BRL) with 5% Fetal bovine serum and 0.4 mg/ml G418. TRAB-11 cells are also immortalized by SV40 large T antigen from adult rat tibia and are cultured in RPMI 1640 medium with 10% FBS and 0.4 mg/ml G418. ROS 17/12.8 rat osteosarcoma cells are cultured in F-12 containing 5% PBS. Osteoblast-enriched (fraction III) primary fetal rat calvaria cells are obtained by collagenase/hyaluronidase digestion of calvariae of 19 day-old rat fetuses. […]

EP4 mRNA [2] = experiment: Localization of EP4 mRNA expression in bone tissue (in situ hybridization); type: in vivo, rat; settings: single anabolic dose, rats
Experimental: Animal Procedures—For mRNA localization experiments, 5-week old Sprague-Dawley rats (Charles River) are euthanized by CO2, their tibiae and calvariae are excised, cleaned of soft tissues and frozen immediately in liquid nitrogen. For EP4 regulation experiments, 6-week old rats are given a single injection of either vehicle (7% ethanol in sterile water) or an anabolic dose of PGE2 (Cayman Chemical, Ann Arbor, Mich.), 3-6 mg/kg in the same vehicle) intraperitoneally. Animals are euthanized at several time points post-injection and their tibiae and calvariae, as well as samples from lung and kidney tissues are frozen in liquid nitrogen.
In-Situ Hybridization—Frozen tibiae are sectioned coronally at […] thickness and sections are mounted on charged slides (Probe On Plus, Fisher Scientific, Springfield, N.J.) and are kept at −70° C. until hybridization. cRNA probes are labeled with ^35S-UTPgS ([CN, Costa Mesa, CA) using a Riboprobe II kit (Promega Madison, Wis.). Hybridization is performed overnight at 50° C. […]
Localization of EP4 mRNA expression in bone tissue—In situ hybridization is used in order to localize cells expressing EP4 in bone. In control experiment (vehicle-injected) rats, low expression of EP4 is detected in bone marrow cells. […]

EP2 mRNA [3] = experiment: EP2 mRNA in vivo in bone tissue (Northern blot); design: species or system rat
EP4 mRNA [4] = experiment: EP4 mRNA levels in vivo in bone tissue (Northern blot); design: species or system rat; settings: tibial diaphysis, five-week-old male rats, 3-6 mg/Kg
Excerpt: Animal Procedures—For mRNA localization experiments, 5-week old Sprague-Dawley rats (Charles River) are euthanized by CO2, their tibiae and calvariae are excised, cleaned of soft tissues and frozen immediately in liquid nitrogen. […] Animals are euthanized at several time points post-injection and their tibiae and calvariae, as well as samples from lung and kidney tissues are frozen in liquid nitrogen.
Northern Blot Analysis—Total RNA is extracted from the tibial metaphysis or diaphysis and calvaria using a guanidinium isothiocyanate-phenol-chloroform method after pulverizing frozen bone samples by a tissue homogenizer. See P. Chomczynski et al., Single-step method of RNA isolation by acid guanidium thiocyanate-phenol-chloroform extraction., Analyt Biochem, 162, 156-159 (1987), which is incorporated by reference herein in its entirety. RNA samples ([…]) are separated on 0.9% agarose/formaldehyde gels and transferred onto nylon membranes (Boehringer Mannheim, Germany). Membranes are prehybridized in Hybrisol I (Oncor, Gaithersburg, Md.) and 0.5 mg/ml sonicated salmon sperm DNA (Boehringer) at 42° C. for 3 hours and are hybridized at 420C with rat EP2 and mouse EP4 cDNA probes labeled with [^32P]-dCTP (Amersham, Buckinghamshire, UK) by random priming using the rediprime kit (Amersham). […]

EP4 mRNA [5] = experiment: EP4 mRNA levels in bone derived cell lines (Northern blot); type: cell-based, rat
Experimental: as §1

CCCCC[C@H](O)/C=C/[C@H]1[C@H](O)CC(=O)[C@@H]1C/C=C\CCCC(=O)O [PGE2]
effect on intracellular cAMP (intracellular cAMP; RCT-3 cells): markedly induced | effect on intracellular cAMP (intracellular cAMP; ROS 17/2.8 cells): no effect | effect on intracellular cAMP (intracellular cAMP; TRAB-11 cells): markedly induced | induction of EP2 mRNA (EP2 mRNA [1]): does not induce | expression of EP4 in bone marrow cells (EP4 mRNA [2]): increased | induction of EP2 mRNA (EP2 mRNA [3]): does not induce | time of peak of EP4 mRNA levels after injection (EP4 mRNA [4]): 2 h | EP4 mRNA levels (EP4 mRNA [4]; systemic): rapidly increased | EP4 mRNA levels (EP4 mRNA [5]; RCT-3 cells): no effect | EP4 mRNA levels (EP4 mRNA [5]; RP-1 periosteal cells, 10^-6 M): rapidly increases | time of peak of EP4 mRNA levels after treatment (EP4 mRNA [5]; RP-1 periosteal cells, 10^-6 M): 2 h
